Results published in ChEMBL document CHEMBL1201862, “PubChem BioAssay data set” (2004).
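Growth conditions: 96-well plates. Treatment: test compound, 48 hours, 5 concentrations. Analysis: linear interpolation between bracketing concentrations; unreached endpoints set to highest concentration. Here, GI50 denotes the concentration required for 50% inhibition of growth.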 Active and inactive are the calls of the source. No stated cut-off is given here; in the data, active = GI50 up to about 1.1 µM and inactive = higher.

Assays:
Assay in all cases: growth of human tumour cells (NCI), 48 h
HCT-15 = system: HCT-15
ACHN = system: ACHN
A549 = system: A549
HOP-62 = system: HOP-62
COLO 205 = system: COLO 205
HCT-116 = system: HCT-116
HT-29 = system: HT-29
NCI-H23 = system: NCI-H23
SK-MEL-5 = system: SK-MEL-5
SK-MEL-2 = system: SK-MEL-2
DMS-273 = system: DMS-273
SF-539 = system: SF-539
K562 = system: K562
DLD-1 = system: DLD-1
UACC-257 = system: UACC-257
KM12 = system: KM12
OVCAR-4 = system: OVCAR-4
Malme-3M = system: Malme-3M
CAKI-1 = system: CAKI-1
MOLT-4 = system: MOLT-4
NCI-H460 = system: NCI-H460
HOP-92 = system: HOP-92
NCI-H226 = system: NCI-H226
NCI-H522 = system: NCI-H522
SNB-19 = system: SNB-19
HL-60 = system: HL-60
SNB-75 = system: SNB-75
SF-295 = system: SF-295
LOX IMVI = system: LOX IMVI
CCRF-CEM = system: CCRF-CEM
SK-MEL-28 = system: SK-MEL-28
OVCAR-8 = system: OVCAR-8
KM-20L2 = system: KM-20L2
SK-OV-3 = system: SK-OV-3
LXFL 529 = system: LXFL 529
SW-620 = system: SW-620
M19-MEL = system: M19-MEL
OVCAR-5 = system: OVCAR-5
RPMI-8226 = system: RPMI-8226
HOP-18 = system: HOP-18
UACC-62 = system: UACC-62
UO-31 = system: UO-31
SNB-78 = system: SNB-78
IGROV-1 = system: IGROV-1
M14 = system: M14
A498 = system: A498
DMS-114 = system: DMS-114
SN12C = system: SN12C
SF-268 = system: SF-268
OVCAR-3 = system: OVCAR-3
786-0 = system: 786-0
EKVX = system: EKVX
TK-10 = system: TK-10

Question: With NC(CCCNCc1ccccc1O)C(=O)O (stereo not drawn) as the compound, how does the GI50 (HCT-15) read?
Answer: > 100 µM

Question: And the GI50 (ACHN)?
Answer: > 100 µM (inactive)

Question: What about the GI50 (A549) of the same compound?
Answer: > 100 µM (inactive)

Question: What about the GI50 (HOP-62) of the same compound?
Answer: > 100 µM (inactive)

Question: What about the GI50 (COLO 205) of the same compound?
Answer: > 100 µM (inactive)

Question: What about the GI50 (HCT-116) of the same compound?
Answer: > 100 µM (inactive)

Question: And the GI50 (HT-29)?
Answer: > 100 µM (inactive)

Question: And the GI50 (NCI-H23)?
Answer: > 100 µM (inactive)

Question: What about the GI50 (SK-MEL-5) of the same compound?
Answer: > 100 µM (inactive)

Question: And the GI50 (SK-MEL-2)?
Answer: > 100 µM (inactive)

Question: What about the GI50 (DMS-273) of the same compound?
Answer: > 100 µM (inactive)

Question: What about the GI50 (SF-539) of the same compound?
Answer: > 100 µM (inactive)

Question: What about the GI50 (K562) of the same compound?
Answer: > 100 µM (inactive)

Question: What about the GI50 (DLD-1) of the same compound?
Answer: > 100 µM (inactive)

Question: What about the GI50 (UACC-257) of the same compound?
Answer: > 100 µM (inactive)

Question: And the GI50 (KM12)?
Answer: > 100 µM (inactive)

Question: And the GI50 (OVCAR-4)?
Answer: > 100 µM (inactive)

Question: And the GI50 (Malme-3M)?
Answer: > 100 µM (inactive)

Question: What about the GI50 (CAKI-1) of the same compound?
Answer: > 100 µM (inactive)

Question: And the GI50 (MOLT-4)?
Answer: > 100 µM (inactive)

Question: And the GI50 (NCI-H460)?
Answer: > 100 µM (inactive)

Question: What about the GI50 (HOP-92) of the same compound?
Answer: > 100 µM (inactive)

Question: What about the GI50 (NCI-H226) of the same compound?
Answer: > 100 µM (inactive)

Question: What about the GI50 (NCI-H522) of the same compound?
Answer: > 100 µM (inactive)

Question: And the GI50 (SNB-19)?
Answer: > 100 µM (inactive)

Question: What about the GI50 (HL-60) of the same compound?
Answer: > 100 µM (inactive)

Question: And the GI50 (SNB-75)?
Answer: > 100 µM (inactive)

Question: And the GI50 (SF-295)?
Answer: > 100 µM (inactive)

Question: And the GI50 (LOX IMVI)?
Answer: > 100 µM (inactive)

Question: And the GI50 (CCRF-CEM)?
Answer: > 100 µM (inactive)

Question: And the GI50 (SK-MEL-28)?
Answer: > 100 µM (inactive)

Question: What about the GI50 (OVCAR-8) of the same compound?
Answer: > 100 µM (inactive)

Question: What about the GI50 (KM-20L2) of the same compound?
Answer: > 100 µM (inactive)

Question: And the GI50 (SK-OV-3)?
Answer: > 100 µM (inactive)

Question: What about the GI50 (LXFL 529) of the same compound?
Answer: > 100 µM (inactive)

Question: What about the GI50 (SW-620) of the same compound?
Answer: > 100 µM (inactive)

Question: And the GI50 (M19-MEL)?
Answer: > 100 µM (inactive)

Question: And the GI50 (OVCAR-5)?
Answer: > 100 µM (inactive)

Question: And the GI50 (RPMI-8226)?
Answer: > 100 µM (inactive)

Question: What about the GI50 (HOP-18) of the same compound?
Answer: > 100 µM (inactive)

Question: And the GI50 (UACC-62)?
Answer: > 100 µM (inactive)

Question: What about the GI50 (UO-31) of the same compound?
Answer: > 100 µM (inactive)

Question: And the GI50 (SNB-78)?
Answer: > 100 µM (inactive)

Question: What about the GI50 (IGROV-1) of the same compound?
Answer: > 100 µM (inactive)

Question: And the GI50 (M14)?
Answer: > 100 µM (inactive)

Question: What about the GI50 (A498) of the same compound?
Answer: > 100 µM (inactive)

Question: And the GI50 (DMS-114)?
Answer: > 100 µM (inactive)

Question: What about the GI50 (SN12C) of the same compound?
Answer: > 100 µM (inactive)

Question: What about the GI50 (SF-268) of the same compound?
Answer: > 100 µM (inactive)

Question: And the GI50 (OVCAR-3)?
Answer: > 100 µM (inactive)

Question: What about the GI50 (786-0) of the same compound?
Answer: > 100 µM (inactive)

Question: And the GI50 (EKVX)?
Answer: > 100 µM (inactive)

Question: And the GI50 (TK-10)?
Answer: > 100 µM (inactive)
